Each compound was assayed against T1, Drak2 (Homo sapiens, UniProt O94768) (assay: Drak2 activity test, ADP-Glo kinase assay (Promega)). Settings: inhibition of Drak2 kinase activity, 2 h room temperature, activity range classes, read-out: IC50_Drak2.
T1 sequence (O94768 1-372): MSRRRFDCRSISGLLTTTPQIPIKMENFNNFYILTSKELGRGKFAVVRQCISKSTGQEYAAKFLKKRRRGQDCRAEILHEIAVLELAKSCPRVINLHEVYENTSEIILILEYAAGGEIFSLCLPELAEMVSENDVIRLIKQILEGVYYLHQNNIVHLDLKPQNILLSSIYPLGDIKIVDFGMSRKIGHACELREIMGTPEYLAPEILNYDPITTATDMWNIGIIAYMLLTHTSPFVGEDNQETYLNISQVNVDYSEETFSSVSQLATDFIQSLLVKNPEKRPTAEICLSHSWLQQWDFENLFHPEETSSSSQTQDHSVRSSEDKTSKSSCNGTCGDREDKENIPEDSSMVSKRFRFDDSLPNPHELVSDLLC
Type: biochemical
Work on `COc1cc(-c2cncc(-c3cc(NC(=O)CC4CCC4)cs3)n2)ccc1OCCN1CCn2ncnc2C1` [Example 175, 2-cyclobutyl-N-{5-[6-(3-methoxy-4-{[2-(5,6,7,8-tetrahydro [1,2,4]triazolo [1,5-a]pyrazin-7-yl)ethyl]oxy}phenyl)pyrazin-2-yl]thiophen-3-yl} acetamide] yielded an IC50 of 11 to 100 nM. For `COc1cc(-c2cncc(-c3cc(NC(=O)Cc4ccco4)cs3)n2)ccc1C(=O)Nc1nnn[nH]1` [Example B13, 2-methoxy-4-(6-(4-(2-(furan-2-yl)acetamido)thiophen-2-yl)pyrazin-2-yl)-N-(1H-tetrazol-5-yl)benzamide], the IC50 was 101 to 1000 nM. `CCCCC(=O)Nc1csc(-c2cncc(C3CCN(S(C)(=O)=O)CC3)n2)c1` [Example D7, N-(5-(6-(1-(methylsulfonyl)piperidin-4-yl)pyrazin-2-yl)thiophen-3-yl)pentanamide] gave an IC50 of 1000 to 10000 nM. Compound `COc1cc(-c2cncc(-c3cc(NC(=O)C(C)C4CCC4)cs3)n2)ccc1C(=O)N(C)C1CCN(C)CC1` (centres unmarked) [Example B95, 4-(6-(4-(2-cyclobutylpropanamido)thiophen-2-yl)pyrazin-2-yl)-2-methoxy-N-methyl-N-(1-methylpiperidin-4-yl)benzamide] has an IC50 of 11 to 100 nM. `CCCCC(=O)Nc1csc(-c2cncc(-c3ccc(C(=O)Nc4nnco4)c(OC)c3)n2)c1` [Example B23, 2-methoxy-4-(6-(4-pentanamidothiophen-2-yl)pyrazin-2-yl)-N-(1,3,4-oxadiazol-2-yl)benzamide] showed an IC50 of 11 to 100 nM. `COc1cc(-c2cncc(-c3cc(NC(=O)CC4CC4)cs3)n2)ccc1C(=O)N1CCN(C2CCN(C)CC2)CC1` [Example B50, 2-cyclopropyl-N-(5-(6-(3-methoxy-4-(4-(1-methylpiperidin-4-yl)piperazine-1-carbonyl)phenyl)pyrazin-2-yl)thiophen-3-yl)acetamide] gave an IC50 of 11 to 100 nM. For `CCCCC(=O)Nc1csc(-c2cncc(-c3cn(C)nc3C)n2)c1` [Example 216, N-{5-[6-(1,3-dimethylpyrazol-4-yl)pyrazin-2-yl]thiophen-3-yl}pentanamide], the IC50 was under 10 nM. For `CCCCCC(=O)Nc1csc(-c2cncc(-c3ccc(OC)c(OC)c3)n2)c1` [Example A29, N-(5-(6-(3,4-dimethoxyphenyl)pyrazin-2-yl)thiophen-3-yl)hexanamide], the IC50 was 101 to 1000 nM. With `O=C(CC1CCC1)Nc1csc(-c2cncc(-c3ccc4cnn(C5CC5)c4c3)n2)c1` [Example 212, 2-Cyclobutyl-N-{5-[6-(1-cyclopropylindazol-6-yl)pyrazin-2-yl]thiophen-3-yl}acetamide] the IC50 was 101 to 1000 nM. For `COc1cc(-c2cncc(-c3cc(NC(=O)CC4CCC4)cs3)n2)ccc1OCC1CCN(C)CC1` [Example 184, 2-Cyclobutyl-N-(5-(6-(3-methoxy-4-((1-methylpiperidin-4-yl)methoxy)phenyl)pyrazin-2-yl)thiophen-3-yl) acetamide], the IC50 was 11 to 100 nM. Compound `CCCCC(=O)Nc1csc(-c2cncc(-c3ccc(C(=O)N(C)CCN(C)C)c(OC)c3)n2)c1` [Example B55, N-(2-(dimethylamino)ethyl)-2-methoxy-N-methyl-4-(6-(4-pentanamidothiophen-2-yl)pyrazin-2-yl)benzamide] has an IC50 of 11 to 100 nM. `O=C(CC1CCC1)Nc1csc(-c2cncc(-c3ccnc4c3ccn4Cc3ccccc3)n2)c1` [Example 211, N-{5-[6-(1-benzylpyrrolo [2,3-b]pyridin-4-yl)pyrazin-2-yl]thiophen-3-yl}-2-cyclobutyl Acetamide] was tested, and the IC50 was 101 to 1000 nM. Work on `CCCCC(=O)Nc1csc(-c2cncc(-c3ccc(O)c(F)c3)n2)c1` [Example A34, N-(5-(6-(3-fluoro-4-hydroxyphenyl)pyrazin-2-yl)thiophen-3-yl)pentanamide] yielded an IC50 of 11 to 100 nM. For `CCCCC(=O)Nc1csc(-c2cncc(-c3ccc(C(=O)N(C)C4CCN(CC(F)(F)F)CC4)c(OC)c3)n2)c1` [Example B70, 2-methoxy-N-methyl-4-(6-(4-pentanamidothiophen-2-yl)pyrazin-2-yl)-N-(1-(2,2,2-trifluoroethyl)piperidin-4-yl)benzamide], the IC50 was 101 to 1000 nM. Work on `COc1cc(-c2cncc(-c3cc(NC(=O)C(N)C4CCC4)cs3)n2)ccc1C(=O)N(C)C1CCN(C)CC1` (centres unmarked) [Example B88, 4-(6-(4-(2-amino-2-cyclobutylacetamido)thiophen-2-yl)pyrazin-2-yl)-2-methoxy-N-methyl-N-(1-methylpiperidin-4-yl)benzamide] yielded an IC50 of 101 to 1000 nM. `CCCCC(=O)Nc1csc(-c2cncc(-c3cccc(OC)c3OC)n2)c1` [Example A12, N-(5-(6-(2,3-dimethoxyphenyl)pyrazin-2-yl)thiophen-3-yl)pentanamide] showed an IC50 of 1000 to 10000 nM. `CCCCC(=O)Nc1csc(-c2cncc(-c3ccc(OCCN4CC[S+]([O-])CC4)c(OC)c3)n2)c1` [Example 194, N-{5-[6-(3-methoxy-4-{[2-(1-oxo-1λ4-thiomorpholin-4-yl)ethyl]oxy}phenyl)pyrazin-2-yl]thiophen-3-yl} pentanamide] was tested, and the IC50 was 11 to 100 nM. In the case of `CCCCC(=O)Nc1csc(-c2cncc(-c3cc(F)c(O)c(OC)c3)n2)c1` [Example A38, N-(5-(6-(3-fluoro-4-hydroxy-5-methoxyphenyl)pyrazin-2-yl)thiophen-3-yl)pentanamide], the IC50 is reported as 1000 to 10000 nM. Work on `COc1cc(-c2cncc(-c3cc(NC(=O)CC4CCC4)cs3)n2)ccc1OCCc1cnn(C)c1` [Example 187, 2-Cyclobutyl-N-(5-(6-(3-methoxy-4-(2-(1-methyl-1H-pyrazol-4-yl)ethoxy)phenyl)pyrazin-2-yl)thiophen-3-yl) acetamide] yielded an IC50 of 11 to 100 nM. In the case of `COc1cc(-c2cncc(-c3cc(NC(=O)CC4CCC4)cs3)n2)ccc1C(=O)N(C)C1CCN(C2CC2)CC1` [Example B96, 4-(6-(4-(2-cyclobutylacetamido)thiophen-2-yl)pyrazin-2-yl)-N-(1-cyclopropylpiperidin-4-yl)-2-methoxy-N-methylbenzamide], the IC50 is reported as 11 to 100 nM. `COc1cc(-c2cncc(-c3cc(NC(=O)CC4CCC4)cs3)n2)ccc1[S+](C)[O-]` (centres unmarked) [Example A47, 2-cyclobutyl-N-(5-(6-(3-methoxy-4-(methylsulfinyl)phenyl)pyrazin-2-yl)thiophen-3-yl)acetamide] was tested, and the IC50 was 101 to 1000 nM. In the case of `COc1cc(-c2cncc(-c3cc(NC(=O)CC4CC(C(C)=O)C4(C)C)cs3)n2)ccc1C(=O)N(C)C1CCN(C)CC1` (centres unmarked) [Example B87, 4-(6-(4-(2-(3-acetyl-2,2-dimethylcyclobutyl)acetamido)thiophen-2-yl)pyrazin-2-yl)-2-methoxy-N-methyl-N-(1-methylpiperidin-4-yl)benzamide], the IC50 is reported as 101 to 1000 nM. For `CCCCC(=O)Nc1csc(-c2cncc(-c3ccc(C(=O)NS(=O)(=O)N(C)C)c(OC)c3)n2)c1` [Example B7, 2-methoxy-4-(6-(4-pentanamidothiophen-2-yl)pyrazin-2-yl)-N-(N,N-dimethylsulfamoyl)benzamide], the IC50 was 101 to 1000 nM. `COc1cc(-c2cncc(-c3cc(NC(C)=O)cs3)n2)ccc1C(=O)Nc1nnn[nH]1` [Example B10, 2-methoxy-4-(6-(4-acetamidothiophen-2-yl)pyrazin-2-yl)-N-(1H-tetrazol-5-yl)benzamide] was tested, and the IC50 was 101 to 1000 nM. Compound `CCCCC(=O)Nc1csc(-c2cncc(-c3ccc(S(C)(=O)=O)c(OC)c3)n2)c1` [Example A42, N-(5-(6-(3-methoxy-4-(methylsulfonyl)phenyl)pyrazin-2-yl)thiophen-3-yl)pentanamide] has an IC50 of 101 to 1000 nM. In the case of `COc1cc(-c2cncc(-c3cc(NC(=O)CC4CC(OCc5ccccc5)C4)cs3)n2)ccc1C(=O)N(C)C1CC2(C1)CN(C)C2` (centres unmarked) [Example 207, 4-(6-(4-(2-(3-(benzyloxy)cyclobutyl)acetylamino)thiophen-2-yl)pyrazin-2-yl)-2-methoxy-N-methyl-N-(2-methyl-2-azaspiro [3.3]heptane-6-yl) benzamide], the IC50 is reported as 11 to 100 nM. Work on `CN1CCC(Cn2cc3ccc(-c4cncc(-c5cc(NC(=O)CC6CCC6)cs5)n4)cc3n2)CC1` [Example A50, 2-cyclobutyl-N-(5-(6-(2-((1-methylpiperidin-4-yl)methyl)-2H-indazol-6-yl)pyrazin-2-yl)thiophen-3-yl)acetamide] yielded an IC50 of 11 to 100 nM. For `COc1cc(-c2cncc(-c3cc(NC(=O)CC4CC4)cs3)n2)ccc1C(=O)N(C)CCN(C)C` [Example B56, 4-(6-(4-(2-cyclopropylacetamido)thiophen-2-yl)pyrazin-2-yl)-N-(2-(dimethylamino)ethyl)-2-methoxy-N-methylbenzamide], the IC50 was under 10 nM. `COc1cc(-c2cncc(-c3cc(NC(=O)CC4CCC4)cs3)n2)ccc1C(=O)N(C)C1CCN(C)CC1` [Example B63, 4-(6-(4-(2-cyclobutylacetamido)thiophen-2-yl)pyrazin-2-yl)-2-methoxy-N-methyl-N-(1-methylpiperidin-4-yl)benzamide] was tested, and the IC50 was under 10 nM.

Source: patent US20240308992A1 (Biopolar Youtang(Guangdong) Pharmaceutical Co., Ltd., priority 2021, published 2024)
